Results as given in publication PMC6643147 (International Journal of Biological Sciences, 2019).

Target: PI3Kα (Homo sapiens, UniProt P42336)
Assay: cell-free ADP-Glo kinase assay with recombinant PI3Kα and poly-EY substrate
Assay type: biochemical

Sequence of PI3Kα (P42336 whole entry): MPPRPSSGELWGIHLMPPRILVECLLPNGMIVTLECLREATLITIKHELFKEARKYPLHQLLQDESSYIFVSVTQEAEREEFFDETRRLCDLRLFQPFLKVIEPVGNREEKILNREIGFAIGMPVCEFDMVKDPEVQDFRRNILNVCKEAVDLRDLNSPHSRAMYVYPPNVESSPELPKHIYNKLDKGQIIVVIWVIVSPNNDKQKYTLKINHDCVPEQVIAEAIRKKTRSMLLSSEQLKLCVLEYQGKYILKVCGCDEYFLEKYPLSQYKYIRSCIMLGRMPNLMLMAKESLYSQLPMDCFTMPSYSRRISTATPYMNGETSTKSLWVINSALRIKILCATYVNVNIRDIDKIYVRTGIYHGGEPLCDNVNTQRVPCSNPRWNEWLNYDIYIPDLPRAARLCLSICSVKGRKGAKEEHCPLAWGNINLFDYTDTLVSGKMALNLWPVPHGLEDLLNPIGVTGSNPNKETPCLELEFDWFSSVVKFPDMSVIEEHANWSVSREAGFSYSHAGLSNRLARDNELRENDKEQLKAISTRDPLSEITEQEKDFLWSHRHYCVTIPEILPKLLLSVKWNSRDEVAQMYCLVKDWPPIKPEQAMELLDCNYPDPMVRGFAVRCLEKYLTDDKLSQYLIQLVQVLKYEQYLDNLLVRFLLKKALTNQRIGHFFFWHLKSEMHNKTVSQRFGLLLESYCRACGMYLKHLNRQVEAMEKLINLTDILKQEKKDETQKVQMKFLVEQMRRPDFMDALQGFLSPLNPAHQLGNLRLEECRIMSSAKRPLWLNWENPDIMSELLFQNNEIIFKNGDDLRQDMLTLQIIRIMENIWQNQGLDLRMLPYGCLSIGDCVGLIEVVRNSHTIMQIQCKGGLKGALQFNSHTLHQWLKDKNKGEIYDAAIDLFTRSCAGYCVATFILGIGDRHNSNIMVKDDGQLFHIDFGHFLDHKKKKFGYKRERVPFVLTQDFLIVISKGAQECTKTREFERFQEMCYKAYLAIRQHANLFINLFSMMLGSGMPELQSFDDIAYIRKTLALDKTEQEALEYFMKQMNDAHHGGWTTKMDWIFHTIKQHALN
Sequence of PI3Kα (P27986 2-724, further chain): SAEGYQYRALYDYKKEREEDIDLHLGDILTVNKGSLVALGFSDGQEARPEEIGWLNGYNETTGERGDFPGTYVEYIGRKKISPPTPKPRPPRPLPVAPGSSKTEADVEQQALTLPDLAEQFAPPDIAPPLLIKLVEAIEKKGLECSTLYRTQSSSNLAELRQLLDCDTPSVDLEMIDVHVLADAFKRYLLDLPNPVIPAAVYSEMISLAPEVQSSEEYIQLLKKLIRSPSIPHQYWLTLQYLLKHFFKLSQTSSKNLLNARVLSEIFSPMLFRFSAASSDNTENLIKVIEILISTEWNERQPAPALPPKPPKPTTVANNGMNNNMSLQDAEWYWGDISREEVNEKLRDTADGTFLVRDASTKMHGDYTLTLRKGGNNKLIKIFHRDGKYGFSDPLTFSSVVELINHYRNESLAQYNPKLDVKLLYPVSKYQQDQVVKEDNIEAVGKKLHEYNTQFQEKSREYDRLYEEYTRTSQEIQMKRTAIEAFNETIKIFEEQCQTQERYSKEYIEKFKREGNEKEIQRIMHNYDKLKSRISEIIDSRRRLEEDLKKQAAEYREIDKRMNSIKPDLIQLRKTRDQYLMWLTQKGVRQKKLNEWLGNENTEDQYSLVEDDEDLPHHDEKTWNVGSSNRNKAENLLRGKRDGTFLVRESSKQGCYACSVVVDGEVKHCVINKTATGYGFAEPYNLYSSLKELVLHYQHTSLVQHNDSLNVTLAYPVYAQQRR

IC50: 0.127 ± 0.00587 µM
Compound: OCCN1CCN(CC/C=C2/c3ccccc3Sc3ccc(C(F)(F)F)cc32)CC1 [flupentixol]
